Results on 14 compounds are retold here after ChEMBL document CHEMBL5579835, “Fluorescent octahydrophenazines as novel inhibitors against herpes simplex viruses” (Eur J Med Chem, 2024).

For series [1], the system named is Human alphaherpesvirus 1. Put plainly: Antiviral activity against HSV-1 infected in African green monkey Vero cells assessed as reduction in viral growth by measuring relative cell viability at 20 uM incubated for 72 hrs by MTT assay. Type of series: functional. Background: Tetrazolium dyes change colour on reduction, which living cells bring about.
The subject of series [2] is Human alphaherpesvirus 1. Put plainly: Antiviral activity against HSV-1 infected in African green monkey Vero cells assessed as reduction in viral growth by measuring relative cell viability at 5 uM incubated for 72 hrs by MTT assay. Type of series: functional.
Series [3] can be described thus: Drug accumulation in African green monkey Vero cells assessed as subcellular localization in endoplasmic reticulum at 20 uM incubated for 1 to 24 hr by Me-THP-Naph staining based confocal scanning laser microscopic analysis. Type of series: ADME, cell-based. Particulars: chlorocebus sabaeus, time 1-24 hrs.
Series [4] is described as follows: Fluorescence property of compound in crystal assessed as fluorescence quantum yield in presence of fluorescein by spectrophotometric analysis. It is filed as physicochemical.
A short description of series [5]: Fluorescence property of compound in cyclohexane assessed as fluorescence quantum yield in presence of fluorescein by spectrophotometric analysis. Type of series: physicochemical.
Series [6] can be described thus: Fluorescence property of compound in H2O assessed as fluorescence quantum yield in presence of fluorescein by spectrophotometric analysis. Type of series: physicochemical.
Series [7] in a line: Fluorescence property of compound in crystal assessed as maximum emission wavelength in presence of fluorescein by spectrophotometric analysis. It is filed as physicochemical.
Series [8] in a line: Fluorescence property of compound in cyclohexane assessed as maximum emission wavelength in presence of fluorescein by spectrophotometric analysis. Type of series: physicochemical.
A short description of series [9]: Fluorescence property of compound in H2O assessed as maximum emission wavelength in presence of fluorescein by spectrophotometric analysis. It is filed as physicochemical.
Series [10] concerns Human alphaherpesvirus 1. Put plainly: Antiviral activity against HSV-1 infected in African green monkey Vero cells assessed as reduction in viral growth incubated for 72 hrs by MTT assay. Particulars: Human alphaherpesvirus 1, Vero. It is filed as functional, organism-based.
In series [11] the test system is Human alphaherpesvirus 2. Put plainly: Antiviral activity against HSV-2 infected in African green monkey Vero cells assessed as reduction in viral growth incubated for 72 hrs by MTT assay. It is filed as functional, organism-based. Particulars: Human alphaherpesvirus 2, Vero.
Series [12] relates to Human alphaherpesvirus 2. Kind of series: Antiviral activity against ACV-resistant HSV-2 infected in African green monkey Vero cells assessed as reduction in viral growth incubated for 72 hrs by MTT assay. It is filed as functional, organism-based. Particulars: Human alphaherpesvirus 2, Vero.
Series [13] concerns Human alphaherpesvirus 1. Put plainly: Antiviral activity against HSV-1 infected in African green monkey Vero cells assessed as downregulation of viral gD protein expression at 5 to 20 uM by Western blotting analysis. Type of series: functional, organism-based. Particulars: dose 5-20 µM. (In western blotting, separated proteins are transferred to a membrane and probed.)
Series [14] deals with Human alphaherpesvirus 1. Kind of series: Antiviral activity against HSV-1 infected in African green monkey Vero cells assessed as downregulation of viral gD mRNA expression at 5 to 20 uM by RT-qPCR analysis. Type of series: functional, organism-based. Particulars: dose 5-20 µM. A general note: In qPCR the cycle at which signal appears reflects the starting amount.
A short description of series [15]: Cytotoxicity against human HEK293T cells assessed as cell viability at 80 uM incubated for 48 hrs by MTT assay relative to control. It is filed as toxicity, cell-based, HEK-293T. Particulars: read-out: Activity.
Another series has as its system HEK-293T. Put plainly: Cytotoxicity against human HEK293T cells at 5 to 80 uM incubated for 48 hrs by MTT assay. It is filed as toxicity, cell-based. Particulars: dose 5-80 µM.
The nature of series [16]: Cytotoxicity against human HEK293T cells incubated for 48 hrs by MTT assay. It is filed as toxicity, cell-based, HEK-293T.
Series [17] has as its system Human alphaherpesvirus 1. Put plainly: Antiviral activity against HSV-1 infected in African green monkey Vero cells assessed as protection of cellular morphology incubated for 24 hrs by CPE based microscopic analysis. Type of series: functional, organism-based.
Series [18] concerns Human alphaherpesvirus 2. Put plainly: Antiviral activity against HSV-2 infected in African green monkey Vero cells assessed as protection of cellular morphology incubated for 24 hrs CPE based microscopic analysis. Type of series: functional, organism-based.
For series [19], the system named is Human alphaherpesvirus 1. Put plainly: Antiviral activity against HSV-1 infected in African green monkey Vero cells assessed as downregulation of viral gD mRNA expression incubated for 48 hrs by RT-qPCR analysis. It is filed as functional, organism-based.
The subject of series [20] is Human alphaherpesvirus 1. Put plainly: Antiviral activity against HSV-1 infected in African green monkey Vero cells assessed as downregulation of viral VP16 mRNA expression incubated for 48 hrs by RT-qPCR analysis. It is filed as functional, organism-based.
Series [21] deals with Human alphaherpesvirus 1. Kind of series: Antiviral activity against HSV-1 infected in African green monkey Vero cells assessed as downregulation of viral gD protein expression at 10 uM incubated for 48 hrs by Western blotting analysis. It is filed as functional, organism-based.
The test system of series [22] is Human alphaherpesvirus 2. Put plainly: Antiviral activity against ACV-resistant HSV-2 infected in African green monkey Vero cells assessed as downregulation of viral gD protein expression at 20 uM incubated for 48 hrs by Western blotting analysis. It is filed as functional, organism-based.
For series [23], the system named is Human alphaherpesvirus 1. Kind of series: Antiviral activity against HSV-1 infected in African green monkey Vero cells assessed as downregulation of viral gD mRNA expression at 20 uM pre-treated with compound for 1 hr followed by viral infection by RT-qPCR analysis. It is filed as functional, organism-based.
The test system of series [24] is Human alphaherpesvirus 1. Put plainly: Antiviral activity against HSV-1 infected in African green monkey Vero cells assessed as downregulation of viral VP16 mRNA expression at 20 uM pre-treated with compound for 1 hr followed by viral infection by RT-qPCR analysis. Type of series: functional, organism-based.
The subject of series [25] is Human alphaherpesvirus 1. Kind of series: Antiviral activity against HSV-1 infected in African green monkey Vero cells assessed as downregulation of viral gD mRNA expression at 20 uM incubated under co-treatment condition for 1 hr by RT-qPCR analysis. Type of series: functional, organism-based.
For series [26], the system named is Human alphaherpesvirus 1. Kind of series: Antiviral activity against HSV-1 infected in African green monkey Vero cells assessed as downregulation of viral VP16 mRNA expression at 20 uM incubated under co-treatment condition for 1 hr by RT-qPCR analysis. Type of series: functional, organism-based.
The test system of series [27] is Human alphaherpesvirus 1. Put plainly: Antiviral activity against HSV-1 infected in African green monkey Vero cells assessed as downregulation of viral gD mRNA expression at 20 uM pre-infected with virus followed by compound treatment by RT-qPCR analysis. It is filed as functional, organism-based.
For series [28], the system named is Human alphaherpesvirus 1. Kind of series: Antiviral activity against HSV-1 infected in African green monkey Vero cells assessed as downregulation of viral VP16 mRNA expression at 20 uM pre-infected with virus followed by compound treatment by RT-qPCR analysis. Type of series: functional, organism-based.
Series [29] has as its system Human alphaherpesvirus 1. Kind of series: Antiviral activity against HSV-1 infected in African green monkey Vero cells assessed as downregulation of viral gD mRNA expression at 20 uM incubated under co-plus post treatment condition for 1 hr by RT-qPCR analysis. It is filed as functional, organism-based.
The subject of series [30] is Human alphaherpesvirus 1. Kind of series: Antiviral activity against HSV-1 infected in African green monkey Vero cells assessed as downregulation of viral VP16 mRNA expression at 20 uM incubated under co-plus post treatment condition for 1 hr by RT-qPCR analysis. It is filed as functional, organism-based.
Series [31] concerns Human alphaherpesvirus 1. Put plainly: Antiviral activity against HSV-1 infected in African green monkey Vero cells assessed as downregulation of viral gD protein expression at 20 uM pre-treated with compound for 1 hr followed by viral infection by Western blotting analysis. Type of series: functional, organism-based.
The test system of series [32] is Human alphaherpesvirus 1. Put plainly: Antiviral activity against HSV-1 infected in African green monkey Vero cells assessed as downregulation of viral ICP8 protein expression at 20 uM pre-treated with compound for 1 hr followed by viral infection by Western blotting analysis. It is filed as functional, organism-based.
Series [33] has as its system Human alphaherpesvirus 1. Kind of series: Antiviral activity against HSV-1 infected in African green monkey Vero cells assessed as reduction in viral plaque formation at 20 uM pre-treated with compound for 36 to 48 hrs followed by viral infection by crystal violet staining based assay. It is filed as functional, organism-based. Particulars: time 36-48 hrs.
The subject of series [34] is Human alphaherpesvirus 1. Put plainly: Antiviral activity against HSV-1 infected in African green monkey Vero cells assessed as downregulation of viral gD protein expression at 20 uM measured after 2 hrs by Western blotting analysis. Type of series: functional, organism-based.
Series [35] deals with Human alphaherpesvirus 1. Put plainly: Antiviral activity against HSV-1 infected in African green monkey Vero cells assessed as downregulation of viral ICP8 protein expression at 20 uM measured after 2 hrs by Western blotting analysis. Type of series: functional, organism-based.

Molecules are shown by their SMILES. Activity calls are given as the source filed them. No cut-off for these calls is given here. Where only a bound is given, the exact number is not on record here.

In the case of `CN1c2c(F)c(C#N)c(F)c(C#N)c2N(C)C2CCCCC21` (racemic), the Activity with Human alphaherpesvirus 1 [1] worked out at 0%.

For `CN1c2c(F)c(C#N)c(C#N)c(F)c2N(C)C2CCCCC21` (racemic), the Activity with Human alphaherpesvirus 1 [1] is 3%.

Turning to `Nc1nc2c(ncn2COCCO)c(=O)[nH]1` [ACYCLOVIR], in the series with Human alphaherpesvirus 1 [2], the Activity is 81%.

For the compound `CN1c2c(C#N)c(F)c(F)c(C#N)c2N(C)[C@@H]2CCCC[C@H]21`, the Drug uptake entry in [3] is given as “Active”. The Activity with Human alphaherpesvirus 1 [1] is given as 8%; in series [4] it was 57.3%; in [5], 90.3%; in series [6] it was 57.1%; in [7], 560 nm; in series [8], 515 nm. In addition, the Activity in [9] is given as 555 nm.

Take `CN(C)c1c(F)c(C#N)c2c(c1C#N)N(C)C1CCCCC1N2C` (racemic): in the series on Human alphaherpesvirus 1 [1], the Activity amounted to 5%.

For the compound `CN1c2c(C#N)c3c(c(C#N)c2N(C)C2CCCCC21)OCCN3` (racemic), the Activity in the series on Human alphaherpesvirus 1 [1] was 1%.

Consider `CN1CCOc2c(C#N)c3c(c(C#N)c21)N(C)C1CCCCC1N3C` (racemic), for which, in the series with Human alphaherpesvirus 1 [1], the Activity amounted to 4%.

On to `CN1c2c(C#N)c(F)c(F)c(C#N)c2N(C)[C@H]2CCCC[C@@H]21`, for which the Drug uptake entry in series [3] was “Active”. Further, the Activity in the series with Human alphaherpesvirus 1 [1] is listed as 40%; in series [4], 56.9%; in series [5], 92.3%; in series [6] it was 59.1%; in series [7], 560 nm; in [8], 515 nm. Further, in series [9], the Activity came to 555 nm. For the same compound, the figures for the EC50 with Human alphaherpesvirus 1 [10], in the series with Human alphaherpesvirus 2 [11] and with Human alphaherpesvirus 2 [12] were 4.1 µM, 5.8 µM and 7.9 µM, respectively. For the same compound, the outcome in the series on Human alphaherpesvirus 1 [13] and in the series with Human alphaherpesvirus 1 [14] was Active.

As for `CN1c2c(C#N)c(F)c(F)c(C#N)c2N(C)C2CCCCC21` (racemic), in series [3], the Drug uptake result was “Active”. Also, the viability at 48 h, 80 µM in series [15] came out at 100%. Also, the Activity with Human alphaherpesvirus 1 [1] is 39%; in the series with HEK-293T, “Non-Toxic”; with Human alphaherpesvirus 1 [17], “Dose-Dependent Effect”; with Human alphaherpesvirus 2 [18] it was “Dose-Dependent Effect”; in the series on Human alphaherpesvirus 1 [19], “Dose-Dependent Effect”; in the series on Human alphaherpesvirus 1 [20], “Dose-Dependent Effect”. In addition, the Activity came out at 54.4% in series [4]; 91.6% in [5]; 56.2% in [6]; 558 nm in series [7]; 515 nm in [8]; 555 nm in [9]. Also, the EC50 with Human alphaherpesvirus 1 [10] was found to be 9.2 µM; with Human alphaherpesvirus 2 [11], 11 µM; in the series with Human alphaherpesvirus 2 [12] it was 14.9 µM. In series [16], the CC50 at 48 h is more than 100 µM. For the same compound, the outcome in the series on Human alphaherpesvirus 1 [21], in the series with Human alphaherpesvirus 2 [22], with Human alphaherpesvirus 1 [26], in the series with Human alphaherpesvirus 1 [27], in the series on Human alphaherpesvirus 1 [28] and with Human alphaherpesvirus 1 [29] was Active. Moreover, the outcome in the series on Human alphaherpesvirus 1 [30], with Human alphaherpesvirus 1 [31], in the series on Human alphaherpesvirus 1 [32], with Human alphaherpesvirus 1 [33], in the series with Human alphaherpesvirus 1 [34] and in the series on Human alphaherpesvirus 1 [35] was Active. The outcome in the series on Human alphaherpesvirus 1 [23], in the series with Human alphaherpesvirus 1 [24] and in the series with Human alphaherpesvirus 1 [25] was inactive.

In the case of `N#Cc1c(F)c(F)c(C#N)c2c1NC1CCCCC1N2` (racemic), the Activity in the series with Human alphaherpesvirus 1 [1] is 7%.

Take `CN1c2c(C#N)c(F)c(N3CCOCC3)c(C#N)c2N(C)C2CCCCC21` (racemic): in the series with Human alphaherpesvirus 1 [1], the Activity is on record as 8%.

As for `CN1c2c(C#N)c(F)c(N3CCCCC3)c(C#N)c2N(C)C2CCCCC21` (racemic), the Activity in the series on Human alphaherpesvirus 1 [1] amounted to 6%.

`CN1c2c(C#N)c(F)c(N3CCCC3)c(C#N)c2N(C)C2CCCCC21` (racemic): the Activity in the series with Human alphaherpesvirus 1 [1] was 9%.

On to `CN1c2c(C#N)c3c(c(C#N)c2N(C)C2CCCCC21)OCCO3` (racemic), for which the Activity in the series with Human alphaherpesvirus 1 [1] is listed as 0%.

As usually defined, the EC50 is the concentration giving half of the maximal effect. As a reminder, the CC50 is the concentration that lowers cell viability or growth by half.
